This is an account of results in ChEMBL document CHEMBL1138129, “A novel nicotinic acetylcholine receptor antagonist radioligand for PET studies” (Bioorg Med Chem Lett, 2006).

Series [1] in a line: Protein binding in baboon plasma. Format: ADME, Papio. As to conditions: read-out: PPB (converted).
The nature of series [2]: Half life of the compound. Format: ADME.
A short description of series [3]: Lipophilicity as measured by Log P. Format: physicochemical. As to conditions: octanol/water.
Series [4] has as its target Neuronal acetylcholine receptor; alpha4/beta2 (Homo sapiens, UniProt P17787+P43681). The series can be described thus: Displacement of [3H]epibatidine from alpha-4-beta-2 ACHR. Format: protein-complex assay.

Chain of Neuronal acetylcholine receptor; alpha4/beta2 (P17787 whole entry): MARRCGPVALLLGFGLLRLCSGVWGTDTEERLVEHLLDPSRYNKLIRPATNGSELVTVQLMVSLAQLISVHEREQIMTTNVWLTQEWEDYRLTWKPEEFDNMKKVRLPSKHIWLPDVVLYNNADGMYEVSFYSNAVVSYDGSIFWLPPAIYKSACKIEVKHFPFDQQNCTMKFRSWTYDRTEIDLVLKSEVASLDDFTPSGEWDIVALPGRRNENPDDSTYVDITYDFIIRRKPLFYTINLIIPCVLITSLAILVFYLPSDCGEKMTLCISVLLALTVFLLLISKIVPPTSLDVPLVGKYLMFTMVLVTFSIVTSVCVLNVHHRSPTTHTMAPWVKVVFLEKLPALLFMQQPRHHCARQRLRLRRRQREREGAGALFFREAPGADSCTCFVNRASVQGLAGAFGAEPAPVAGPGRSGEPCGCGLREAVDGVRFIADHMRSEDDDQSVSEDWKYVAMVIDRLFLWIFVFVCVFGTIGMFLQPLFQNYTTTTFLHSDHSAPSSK
Chain of Neuronal acetylcholine receptor; alpha4/beta2 (P43681 whole entry): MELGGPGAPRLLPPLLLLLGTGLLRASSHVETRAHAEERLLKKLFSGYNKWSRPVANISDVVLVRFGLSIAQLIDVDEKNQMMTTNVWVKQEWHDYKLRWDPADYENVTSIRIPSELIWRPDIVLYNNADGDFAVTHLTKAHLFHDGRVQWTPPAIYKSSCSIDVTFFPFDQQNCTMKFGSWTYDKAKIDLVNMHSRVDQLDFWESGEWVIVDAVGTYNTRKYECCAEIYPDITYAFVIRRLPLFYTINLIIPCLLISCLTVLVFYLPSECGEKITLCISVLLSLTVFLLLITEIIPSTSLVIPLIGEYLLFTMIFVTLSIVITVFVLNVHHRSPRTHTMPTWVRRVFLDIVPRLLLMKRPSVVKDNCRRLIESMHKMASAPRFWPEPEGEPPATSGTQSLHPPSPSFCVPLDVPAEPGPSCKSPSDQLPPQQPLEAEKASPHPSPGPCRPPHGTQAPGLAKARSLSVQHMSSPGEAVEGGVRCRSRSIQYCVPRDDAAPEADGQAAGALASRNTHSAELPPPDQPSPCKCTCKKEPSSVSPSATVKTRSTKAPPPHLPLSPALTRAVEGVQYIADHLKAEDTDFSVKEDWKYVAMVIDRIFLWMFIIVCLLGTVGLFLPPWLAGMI

In general, half-life refers to the time in which the quantity being followed falls by half. The low end stands for rapid decline, the high end for slow decline. As usually defined, the logP is a log measure of how a compound divides between an organic and an aqueous phase. A higher logP goes with a more lipophilic compound. The term Ki denotes the equilibrium dissociation constant of an inhibitor or competing ligand from its target. Lower therefore signals a stronger hold on the target. With `[11CH3]N1C2CCC1C(c1cncc(I)c1)C2` (centres undefined), in series [1], the fraction unbound is 0.6. Further, the half-life in series [2] worked out at 1 h. This molecule yielded a logP in series [3] of 1.09. Also, in series [4], affinity was put at a Ki of 29 nM.
